Read-outs that look alike come from different tables or passages of the source. Values belong to the compound of their own block, whether it stands above or below them.
Key:
TAS2R14 [1] = molecular target: T1, TAS2R14 (Homo sapiens, UniProt Q9NYV8); assay: Fluo-4 calcium mobilization, HEK293-TAS2R14-G16gust44 cells; type: cell-based
T1 construct: full-length cDNA, stably expressed in HEK293 cells with chimeric G16gust44 (G alpha 16 fused with 44 amino acids of gustducin)
T1 sequence (Q9NYV8 1-317): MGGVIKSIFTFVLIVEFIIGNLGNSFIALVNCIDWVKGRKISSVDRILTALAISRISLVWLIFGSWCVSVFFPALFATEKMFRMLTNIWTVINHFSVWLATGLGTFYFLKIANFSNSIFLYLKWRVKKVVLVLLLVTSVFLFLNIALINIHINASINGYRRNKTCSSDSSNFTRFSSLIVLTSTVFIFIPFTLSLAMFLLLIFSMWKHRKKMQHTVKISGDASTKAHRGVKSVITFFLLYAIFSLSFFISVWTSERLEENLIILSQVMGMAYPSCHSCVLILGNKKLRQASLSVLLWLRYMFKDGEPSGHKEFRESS

TAS2R14 [2] = molecular target: T1, TAS2R14; assay: Fluo-4 calcium mobilization, antagonist mode, HEK293-TAS2R14-G16gust44 cells; type: cell-based; conditions: in the presence of 10.0 μM aristolochic acid A as agonist, 37 °C, 2.5 mM probenecid in loading buffer

Compound: COc1cccc2c1cc([N+](=O)[O-])c1c(C(=O)O)cc3c(c12)OCO3 [AAA, aristolochic acid A]
EC50 (TAS2R14 [1]): 2 µM

EC50 (TAS2R14 [1]; read-out: EC50): 4.9 µM
Compound: C[C@H]1O[C@@H](O[C@H]2CC[C@@]3(C)[C@@H](CC[C@]4(C)[C@@H]3C=CC3=C5CC(C)(C)CC[C@]5(CO)C(O)C[C@]34C)[C@]2(C)CO)[C@H](O)[C@@H](O[C@@H]2O[C@H](CO)[C@@H](O)[C@H](O)[C@H]2O)[C@H]1O (stereo partly drawn) [SSb, Saikosaponin b]

IC50 (TAS2R14 [2]): 18.5 µM
Compound: sulfamoyl-benzoic acid [SBA]

— PMC5610306, “Identification of a specific agonist of human TAS2R14 from Radix Bupleuri through virtual screening, functional evaluation and binding studies” (Scientific Reports, 2017)
